From PubChem BioAssay AID248 (DTP/NCI, 2004)
Values joined by “and” are separate entries in the source; they are usually repeats but may differ in a detail not shown here. Equal entries are not always repeated. Inconclusive results and toxic doses are left out. Cut-off read from the data, not from the text of the source: active = T/C of 150% or more; inactive = T/C below 125%.

System: L1210 leukemia ip in BDF1 mice, survival T/C
Test: NCI In Vivo Anticancer Drug Screen. Data for tumor model L1210 Leukemia (intraperitoneal) in B6D2F1 (BDF1) mice
Conditions: endpoint: mean survival time, higher = longer survival
Summary of the method: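 Transplanted-tumor mice were given test agent; controls received vehicle only. Survival readings from the two groups were divided (treated over control).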

[1] = dose: 200.0 mg/kg/injection, schedule: Q01DX001 (ip), vehicle: saline
[2] = dose: 400.0 mg/kg/injection, schedule: Q01DX001 (ip), vehicle: saline
[3] = dose: 10.0 mg/kg/injection, schedule: Q04DX002 (ip), vehicle: Klucel (hydroxypropylcellulose) (HPC)
[4] = dose: 100.0 mg/kg/injection, schedule: Q01DX009 (ip), vehicle: saline with Tween-80
[5] = dose: 100.0 mg/kg/injection, schedule: Q04DX003 (ip), vehicle: saline
[6] = dose: 200.0 mg/kg/injection, schedule: Q04DX003 (ip), vehicle: saline
[7] = dose: 200.0 mg/kg/injection, schedule: Q01DX009 (ip), vehicle: saline with Tween-80
[8] = dose: 400.0 mg/kg/injection, schedule: Q01DX009 (ip), vehicle: saline with Tween-80
[9] = dose: 100.0 mg/kg/injection, schedule: Q04DX003 (ip), vehicle: Klucel (hydroxypropylcellulose) (HPC)
[10] = dose: 200.0 mg/kg/injection, schedule: Q04DX003 (ip), vehicle: Klucel (hydroxypropylcellulose) (HPC)
[11] = dose: 400.0 mg/kg/injection, schedule: Q04DX003 (ip), vehicle: Klucel (hydroxypropylcellulose) (HPC)
[12] = dose: 200.0 mg/kg/injection, schedule: Q04DX003 (ip), vehicle: saline with Tween-80
[13] = dose: 400.0 mg/kg/injection, schedule: Q04DX003 (ip), vehicle: saline with Tween-80

Measured: T/C

COC(=O)/C=C(\C)Oc1c(Cl)c(Cl)c(Cl)c(Cl)c1Cl
inactive: dose: 100.0 mg/kg/injection, schedule: Q01DX009 (ip), vehicle: saline sonified 96 % of control | dose: 200.0 mg/kg/injection, schedule: Q01DX009 (ip), vehicle: saline sonified 100 % of control | dose: 400.0 mg/kg/injection, schedule: Q01DX009 (ip), vehicle: saline sonified 100 % of control

O=S(=O)(c1ccccc1)C(Cl)c1cccc(Cl)c1 (stereo not drawn)
inactive: dose: 100.0 mg/kg/injection, schedule: Q04DX002 (ip), vehicle: Klucel (hydroxypropylcellulose) (HPC) 105 % of control | dose: 200.0 mg/kg/injection, schedule: Q04DX002 (ip), vehicle: Klucel (hydroxypropylcellulose) (HPC) 101 % of control | dose: 400.0 mg/kg/injection, schedule: Q04DX002 (ip), vehicle: Klucel (hydroxypropylcellulose) (HPC) 122 % of control

CC1([N+](=O)[O-])COP(=O)(O)OC1 (stereo not drawn)
inactive: [1] 90 % of control | [2] 97 % of control

COc1ccc(CC#N)cc1
inactive: dose: 2.5 mg/kg/injection, schedule: Q04DX002 (ip), vehicle: Klucel (hydroxypropylcellulose) (HPC) 103 % of control | dose: 5.0 mg/kg/injection, schedule: Q01DX009 (ip), vehicle: Klucel (hydroxypropylcellulose) (HPC) 91 % of control | dose: 5.0 mg/kg/injection, schedule: Q04DX002 (ip), vehicle: Klucel (hydroxypropylcellulose) (HPC) 98 % of control | dose: 10.0 mg/kg/injection, schedule: Q01DX009 (ip), vehicle: Klucel (hydroxypropylcellulose) (HPC) 89 % of control | [3] 98 % of control and 110 % of control | dose: 20.0 mg/kg/injection, schedule: Q01DX009 (ip), vehicle: Klucel (hydroxypropylcellulose) (HPC) 92 % of control

CC(C)(C)OC(=O)NN1Cc2ccccc2Cc2ccccc2C1
inactive: dose: 100.0 mg/kg/injection, schedule: Q01DX001 (ip), vehicle: carboxymethylcellulose (CMC) 96 % of control | dose: 200.0 mg/kg/injection, schedule: Q01DX001 (ip), vehicle: carboxymethylcellulose (CMC) 91 % of control | dose: 400.0 mg/kg/injection, schedule: Q01DX001 (ip), vehicle: carboxymethylcellulose (CMC) 96 % of control

O=C(O)/C=C/C(=O)Nc1ccc(Br)c(Cl)c1
inactive: [4] 86 % of control

COc1ccc2c(c1)CCNC2CCO (stereo not drawn)
inactive: [5] 103 % of control

CCOC(=O)c1cnc(SC)nc1Nc1c(Br)cc(Br)cc1Br
inactive: dose: 12.5 mg/kg/injection, schedule: Q01DX009 (ip), vehicle: Klucel (hydroxypropylcellulose) (HPC) 102 % of control | dose: 12.5 mg/kg/injection, schedule: Q04DX003 (ip), vehicle: Klucel (hydroxypropylcellulose) (HPC) 97 % of control | dose: 25.0 mg/kg/injection, schedule: Q01DX009 (ip), vehicle: Klucel (hydroxypropylcellulose) (HPC) 102 % of control | dose: 25.0 mg/kg/injection, schedule: Q04DX003 (ip), vehicle: Klucel (hydroxypropylcellulose) (HPC) 94 % of control | dose: 50.0 mg/kg/injection, schedule: Q01DX009 (ip), vehicle: Klucel (hydroxypropylcellulose) (HPC) 105 % of control | dose: 50.0 mg/kg/injection, schedule: Q04DX003 (ip), vehicle: Klucel (hydroxypropylcellulose) (HPC) 103 % of control

O=C1C/C(=C\c2ccccc2O)C(=O)c2ccccc21
inactive: [3] 101 % of control | dose: 20.0 mg/kg/injection, schedule: Q04DX002 (ip), vehicle: Klucel (hydroxypropylcellulose) (HPC) 93 % of control | dose: 40.0 mg/kg/injection, schedule: Q04DX002 (ip), vehicle: Klucel (hydroxypropylcellulose) (HPC) 101 % of control

O=C(c1ccccc1)c1cc2ccccc2oc1=O
inactive: dose: 100.0 mg/kg/injection, schedule: Q01DX001 (ip), vehicle: Klucel (hydroxypropylcellulose) (HPC) 103 % of control | dose: 200.0 mg/kg/injection, schedule: Q01DX001 (ip), vehicle: Klucel (hydroxypropylcellulose) (HPC) 98 % of control | dose: 400.0 mg/kg/injection, schedule: Q01DX001 (ip), vehicle: Klucel (hydroxypropylcellulose) (HPC) 90 % of control

Cc1ccc(S(=O)(=O)CC(=O)NC(N)=O)cc1
inactive: [5] 92 % of control | [6] 103 % of control | dose: 400.0 mg/kg/injection, schedule: Q04DX003 (ip), vehicle: saline 105 % of control

O=C(N/N=C\c1cc(Cl)cc(Cl)c1O)c1cccnc1
inactive: dose: 100.0 mg/kg/injection, schedule: Q01DX009 (ip), vehicle: Klucel (hydroxypropylcellulose) (HPC) 100 % of control | dose: 200.0 mg/kg/injection, schedule: Q01DX009 (ip), vehicle: Klucel (hydroxypropylcellulose) (HPC) 89 % of control

O=C(O)C(Br)C(Br)C(=O)Nc1ccc(Cl)c(Cl)c1 (stereo not drawn)
inactive: [4] 101 % of control | [7] 104 % of control | [8] 93 % of control

COc1ccc(OC)c(NC(=O)NCCCl)c1
inactive: [9] 101 % of control | [10] 98 % of control | [11] 87 % of control

CC(=O)NC1CCCCC1
inactive: dose: 100.0 mg/kg/injection, schedule: Q04DX003 (ip), vehicle: saline with Tween-80 95 % of control | [12] 98 % of control | [13] 92 % of control

O=C(O)c1cc(N=Nc2ccccc2)ccc1O
inactive: dose: 50.0 mg/kg/injection, schedule: Q01DX009 (ip), vehicle: saline with Tween-80 96 % of control | dose: 50.0 mg/kg/injection, schedule: Q04DX003 (ip), vehicle: other 93 % of control | dose: 100.0 mg/kg/injection, schedule: Q01DX001 (ip), vehicle: other 101 % of control | [4] 94 % of control | dose: 100.0 mg/kg/injection, schedule: Q04DX003 (ip), vehicle: other 93 % of control | [5] 96 % of control | dose: 200.0 mg/kg/injection, schedule: Q01DX001 (ip), vehicle: other 107 % of control | dose: 200.0 mg/kg/injection, schedule: Q04DX003 (ip), vehicle: other 98 % of control | [6] 87 % of control

O=C(/C=C/c1c(Cl)cccc1Cl)c1ccc([N+](=O)[O-])cc1
inactive: [9] 103 % of control | [10] 94 % of control | [11] 94 % of control

CCOC(=O)c1ccc(NC(=O)N(C2CCCCC2)C2CCCCC2)cc1
inactive: dose: 100.0 mg/kg/injection, schedule: Q01DX001 (ip), vehicle: saline with Tween-80 86 % of control | [4] 101 % of control | dose: 100.0 mg/kg/injection, schedule: Q04DX002 (ip), vehicle: saline with Tween-80 103 % of control and 90 % of control | dose: 200.0 mg/kg/injection, schedule: Q01DX001 (ip), vehicle: saline with Tween-80 86 % of control | [7] 92 % of control | dose: 200.0 mg/kg/injection, schedule: Q04DX002 (ip), vehicle: saline with Tween-80 94 % of control | [12] 94 % of control | dose: 400.0 mg/kg/injection, schedule: Q01DX001 (ip), vehicle: saline with Tween-80 93 % of control | [8] 101 % of control | dose: 400.0 mg/kg/injection, schedule: Q04DX002 (ip), vehicle: saline with Tween-80 94 % of control and 90 % of control | [13] 91 % of control

c1ccc2c(c1)ccc1cc3ccncc3cc12
inactive: dose: 100.0 mg/kg/injection, schedule: Q01DX001 (ip), vehicle: saline 95 % of control and 98 % of control | [1] 100 % of control and 106 % of control | [2] 96 % of control

c1ccc2c(CC3=NCCN3)cccc2c1
inactive: dose: 12.5 mg/kg/injection, schedule: Q01DX009 (ip), vehicle: saline with Tween-80 96 % of control | dose: 25.0 mg/kg/injection, schedule: Q01DX009 (ip), vehicle: saline with Tween-80 103 % of control
